Values quoted from earlier work as cited in patent US11737956B2, “Composition for intracanal medication” (MARUCHI, priority 2016, dated 2023).

Conditions: very small amount of dissolution in water

For `[Ca+2].[OH-].[OH-]` [calcium hydroxide], the pH of water is listed as 12.4.
